Experimental data published in publication PMC9784969, “SARS-CoV-2 Inhibitors Identified by Phenotypic Analysis of a Collection of Viral RNA-Binding Molecules” (Pharmaceuticals, 2022).
pEC50, pKd: −log10 of the molar value. Like-named read-outs stand apart in the source and are kept apart here.

Tests used:
5_SL2+3 RNA = assay: ligand-based 1H NMR (1D, CPMG, wLOGSY); type: binding, SARS-CoV-2
3_S2m RNA [1] = assay: RNA-based 1H NMR (TOCSY) titration; type: binding, SARS-CoV-2; conditions: RNA:ligand up to 1:4
Method: The RNA samples were previously diafiltrated into an aqueous solution containing 25 mM potassium phosphate (pH 6.2), 50 mM KCl and 0.1 mM EDTA, and the titration experiments were carried out at 27 °C using 50 μM RNA samples in 100% D2O. The 3_S2m titrations were duplicated at 25 °C using 120 μM RNA samples and additionally acquiring NOESY spectra (250 ms mixing time) at 1:0 and 1:4 ratios. For this system, the chemical shift perturbation analyses included 63 H1’, H2’, and aromatic 3_S2m resonances. The isolated 3_S2m hairpin was studied at two different temperatures (25 and 35 °C) using 120 and 500 μM RNA samples and similar TOCSY and NOESY (120 and 250 ms mixing times) experiments. […] The relaxation delay for NOESY and TOCSY acquisition was 2 and 1.5 s, respectively.

PRF RNA = assay: ligand-based 1H NMR (1D, CPMG, wLOGSY); type: binding, SARS-CoV-2
ORF7b RNA = assay: ligand-based 1H NMR (1D, CPMG, wLOGSY); type: binding, SARS-CoV-2
in vitro = conditions: African green monkey, uninfected Vero E6 cells
SARS-CoV-2 USA-WA1/2020 = assay: microbe, parasite or virus in culture; type: cell-based; conditions: Severe acute respiratory syndrome coronavirus 2, 48 h; 293T-ACE2 cells, MOI 0.25, two days; read-out: SARS-CoV-2 EC50
3_SL1+2 RNA = type: binding
3_S2m-23fl RNA hairpin = assay: fluorescence intensity binding assay; parameters: species or system SARS-CoV-2
Method: The 3_S2m-23fl RNA oligonucleotide used in fluorescence intensity experiments was purchased HPLC-purified from Integrated DNA Technologies (Coralville, IA, USA). […] The mixture of tRNAs from E. coli MRE 600 (identified as tRNA^mix) used to evaluate specificity was obtained from Roche (Basel, Switzerland).
3_S2m-23fl (at 100 nM concentration) was snap-cooled in a buffer containing sodium phosphate pH 6.6, 0 or 150 mM NaCl, and 0.1 mM EDTA and incubated with increasing amounts of compound. The specificity of the RNA–ligand interactions was evaluated by repeating the assays in the presence of a 100-fold molar excess (10 μM) of tRNA^mix. The equilibrium dissociation constants Kd were obtained by fitting the dose–response curves to a two-state binding model [41] with Prism software (GraphPad Software, San Diego, CA, USA). All fluorescence binding assays were carried out three times for each molecule and condition.

SCoV2 USA-WA1/2020 = type: cell-based; conditions: 293T-ACE2, MOI 2, 8-h single cycle; added at +2 h relative to infection
3_S2m RNA [2] = assay: ligand-based 1H NMR (1D, CPMG, wLOGSY); type: binding, SARS-CoV-2
[3] = average of aliphatic protons, RNA:ligand 1:100 (clomiphene) or 1:50 (trim, qz2)
[4] = average of aromatic protons, RNA:ligand 1:100 (clomiphene) or 1:50 (trim, qz2)

NCCCc1cn(C(c2ccccc2)(c2ccccc2)c2ccccc2)cn1 [trim]
CPMG variation (5_SL2+3 RNA; [3]): 31.0%
LB (5_SL2+3 RNA; [3]): 19.1%
LOGSY factor (5_SL2+3 RNA; [3]): 49.4%
CPMG variation (5_SL2+3 RNA; [4]): 39.0%
LB (5_SL2+3 RNA; [4]): 15.9%
LOGSY factor (5_SL2+3 RNA; [4]): 131.1%
CPMG variation (5_SL2+3 RNA; trim peak A, RNA:ligand 1:50): 32.9%
LB (5_SL2+3 RNA; trim peak A, RNA:ligand 1:50): 15.7%
LOGSY factor (5_SL2+3 RNA; trim peak A, RNA:ligand 1:50): 55.3%
CPMG variation (5_SL2+3 RNA; trim peak B, RNA:ligand 1:50): 36.9%
LB (5_SL2+3 RNA; trim peak B, RNA:ligand 1:50): 20.8%
LOGSY factor (5_SL2+3 RNA; trim peak B, RNA:ligand 1:50): 43.4%
CPMG variation (5_SL2+3 RNA; trim peak C, RNA:ligand 1:50): 40.3%
LB (5_SL2+3 RNA; trim peak C, RNA:ligand 1:50): 14.9%
LOGSY factor (5_SL2+3 RNA; trim peak C, RNA:ligand 1:50): 131%
CPMG variation (5_SL2+3 RNA; trim peak D, RNA:ligand 1:50): 38.6%
LB (5_SL2+3 RNA; trim peak D, RNA:ligand 1:50): 16.0%
LOGSY factor (5_SL2+3 RNA; trim peak D, RNA:ligand 1:50): 126%
CPMG variation (5_SL2+3 RNA; trim peak E, RNA:ligand 1:50): 38.9%
LB (5_SL2+3 RNA; trim peak E, RNA:ligand 1:50): 16.7%
LOGSY factor (5_SL2+3 RNA; trim peak E, RNA:ligand 1:50): 135%
RNA chemical shift perturbations (3_S2m RNA [1]): strongest RNA chemical shift perturbations
CPMG variation (PRF RNA; [3]): 14.0%
LB (PRF RNA; [3]): 13.9%
LOGSY factor (PRF RNA; [3]): 29.0%
CPMG variation (PRF RNA; [4]): 15.5%
LB (PRF RNA; [4]): -22.5%
LOGSY factor (PRF RNA; [4]): 50.5%
CPMG variation (PRF RNA; trim peak A, RNA:ligand 1:50): 13.0%
LB (PRF RNA; trim peak A, RNA:ligand 1:50): 20.1%
LOGSY factor (PRF RNA; trim peak A, RNA:ligand 1:50): 37.0%
CPMG variation (PRF RNA; trim peak B, RNA:ligand 1:50): 18.9%
LB (PRF RNA; trim peak B, RNA:ligand 1:50): 10.8%
LOGSY factor (PRF RNA; trim peak B, RNA:ligand 1:50): 21.0%
CPMG variation (PRF RNA; trim peak C, RNA:ligand 1:50): 9.72%
LB (PRF RNA; trim peak C, RNA:ligand 1:50): -39.2%
LOGSY factor (PRF RNA; trim peak C, RNA:ligand 1:50): 16.7%
CPMG variation (PRF RNA; trim peak D, RNA:ligand 1:50): 19.7%
LB (PRF RNA; trim peak D, RNA:ligand 1:50): 3.93%
LOGSY factor (PRF RNA; trim peak D, RNA:ligand 1:50): 46.0%
CPMG variation (PRF RNA; trim peak E, RNA:ligand 1:50): 12.5%
LB (PRF RNA; trim peak E, RNA:ligand 1:50): -58.9%
LOGSY factor (PRF RNA; trim peak E, RNA:ligand 1:50): 88.8%
CPMG variation (ORF7b RNA; [3]): 38.7%
LB (ORF7b RNA; [3]): 13.5%
LOGSY factor (ORF7b RNA; [3]): 103%
CPMG variation (ORF7b RNA; [4]): 30.2%
LB (ORF7b RNA; [4]): 4.23%
LOGSY factor (ORF7b RNA; [4]): 208%
CPMG variation (ORF7b RNA; trim peak A, RNA:ligand 1:50): 34.9%
LB (ORF7b RNA; trim peak A, RNA:ligand 1:50): 15.8%
LOGSY factor (ORF7b RNA; trim peak A, RNA:ligand 1:50): 75.4%
CPMG variation (ORF7b RNA; trim peak B, RNA:ligand 1:50): 44.0%
LB (ORF7b RNA; trim peak B, RNA:ligand 1:50): 12.4%
LOGSY factor (ORF7b RNA; trim peak B, RNA:ligand 1:50): 132%
CPMG variation (ORF7b RNA; trim peak C, RNA:ligand 1:50): 18.3%
LB (ORF7b RNA; trim peak C, RNA:ligand 1:50): -3.43%
LOGSY factor (ORF7b RNA; trim peak C, RNA:ligand 1:50): 210%
CPMG variation (ORF7b RNA; trim peak D, RNA:ligand 1:50): 41.8%
LB (ORF7b RNA; trim peak D, RNA:ligand 1:50): 7.94%
LOGSY factor (ORF7b RNA; trim peak D, RNA:ligand 1:50): 218%
CPMG variation (ORF7b RNA; trim peak E, RNA:ligand 1:50): 20.4%
LB (ORF7b RNA; trim peak E, RNA:ligand 1:50): 4.46%
LOGSY factor (ORF7b RNA; trim peak E, RNA:ligand 1:50): 196%
CC50 at 2 days (in vitro): > 90 µM
pEC50 (SARS-CoV-2 USA-WA1/2020): 6.48
CPMG variation (3_SL1+2 RNA; [3]): 18.3%
LB (3_SL1+2 RNA; [3]): 14.0%
LOGSY factor (3_SL1+2 RNA; [3]): 33.1%
CPMG variation (3_SL1+2 RNA; [4]): 25.0%
LB (3_SL1+2 RNA; [4]): 10.2%
LOGSY factor (3_SL1+2 RNA; [4]): 87.9%
CPMG variation (3_SL1+2 RNA; trim peak A, RNA:ligand 1:50): 18.5%
LB (3_SL1+2 RNA; trim peak A, RNA:ligand 1:50): 11.8%
LOGSY factor (3_SL1+2 RNA; trim peak A, RNA:ligand 1:50): 32.1%
CPMG variation (3_SL1+2 RNA; trim peak B, RNA:ligand 1:50): 23.8%
LB (3_SL1+2 RNA; trim peak B, RNA:ligand 1:50): 15.1%
LOGSY factor (3_SL1+2 RNA; trim peak B, RNA:ligand 1:50): 34.2%
CPMG variation (3_SL1+2 RNA; trim peak C, RNA:ligand 1:50): 23.6%
LB (3_SL1+2 RNA; trim peak C, RNA:ligand 1:50): 7.46%
LOGSY factor (3_SL1+2 RNA; trim peak C, RNA:ligand 1:50): 80.8%
CPMG variation (3_SL1+2 RNA; trim peak D, RNA:ligand 1:50): 25.2%
LB (3_SL1+2 RNA; trim peak D, RNA:ligand 1:50): 9.70%
LOGSY factor (3_SL1+2 RNA; trim peak D, RNA:ligand 1:50): 92.6%
CPMG variation (3_SL1+2 RNA; trim peak E, RNA:ligand 1:50): 26.4%
LB (3_SL1+2 RNA; trim peak E, RNA:ligand 1:50): 14.1%
LOGSY factor (3_SL1+2 RNA; trim peak E, RNA:ligand 1:50): 90.5%
pKd (3_S2m-23fl RNA hairpin; 0 mM NaCl, pH 6.6, 25 °C, read-out: Kd): 4.71
pKd (3_S2m-23fl RNA hairpin; 150 mM NaCl, 100-fold molar excess of tRNA, read-out: Kd-tRNA): 5.05
pKd (3_S2m-23fl RNA hairpin; 150 mM NaCl, pH 6.6, 25 °C, no tRNA, read-out: Kd): 4.90
nucleocapsid protein expression (SCoV2 USA-WA1/2020): strongly inhibited
CPMG variation (3_S2m RNA [2]; [3]): 15.7%
LB (3_S2m RNA [2]; [3]): 9.33%
LOGSY factor (3_S2m RNA [2]; [3]): 39.4%
CPMG variation (3_S2m RNA [2]; [4]): 24.0%
LB (3_S2m RNA [2]; [4]): 8.82%
LOGSY factor (3_S2m RNA [2]; [4]): 54.4%
CPMG variation (3_S2m RNA [2]; trim peak A, RNA:ligand 1:50): 15.8%
LB (3_S2m RNA [2]; trim peak A, RNA:ligand 1:50): 5.70%
LOGSY factor (3_S2m RNA [2]; trim peak A, RNA:ligand 1:50): 45.5%
CPMG variation (3_S2m RNA [2]; trim peak B, RNA:ligand 1:50): 22.1%
LB (3_S2m RNA [2]; trim peak B, RNA:ligand 1:50): 11.1%
LOGSY factor (3_S2m RNA [2]; trim peak B, RNA:ligand 1:50): 33.3%
CPMG variation (3_S2m RNA [2]; trim peak C, RNA:ligand 1:50): 22.2%
LB (3_S2m RNA [2]; trim peak C, RNA:ligand 1:50): 11.7%
LOGSY factor (3_S2m RNA [2]; trim peak C, RNA:ligand 1:50): 54.5%
CPMG variation (3_S2m RNA [2]; trim peak D, RNA:ligand 1:50): 24.2%
LB (3_S2m RNA [2]; trim peak D, RNA:ligand 1:50): 4.64%
LOGSY factor (3_S2m RNA [2]; trim peak D, RNA:ligand 1:50): 70.5%
CPMG variation (3_S2m RNA [2]; trim peak E, RNA:ligand 1:50): 26.4%
LB (3_S2m RNA [2]; trim peak E, RNA:ligand 1:50): 14.3%
LOGSY factor (3_S2m RNA [2]; trim peak E, RNA:ligand 1:50): 38.2%
